# Laboratory results taken from paper PMC6950563, “Epinecidin-1 Protects against Methicillin Resistant Staphylococcus aureus Infection and Sepsis in Pyemia Pigs” (Marine Drugs, 2019).
# Like-named read-outs stand apart in the source and are kept apart here. Residues, ends and D or L forms follow the SMILES beside them.
# Experiments:
# MRSA [1] = type: cell-based, Staphylococcus aureus; details: for pathogens killed (time-kill): 4 h
# Method: At 4, 8, 12, and 24 h post-treatment, the number of viable bacteria (CFU) was determined for the time-kill experiment.
# MRSA [2] = experiment: Survival of MRSA-infected pyemia pigs; type: in vivo, pig
# Method: Administration of bacteria or mock treatment followed by flushing with 5 mL of sterile isotonic saline was performed by i.v. through a 22G catheter inserted in the right femoral vein. The catheter was removed after administration. Another 22G catheter was then inserted into the left femoral vein and secured with stitches. The catheter was flushed with 10 mL sterile isotonic saline solution, and then with 2 mL of 100 I.U./mL sterile heparin solution (catalogue number H3149, Sigma Chemical Co., St. Louis, MO, USA) for blood sampling. During blood sampling, the initial 5 mL of blood was discarded to avoid the heparin carryover. Five pigs were inoculated with the MRSA strain (1 × 10^9 CFU/kg) only. […] Samples were subsequently collected for histopathology, microbial studies, and bacterial count.
# MRSA [3] = experiment: Histopathology (H&E) of major organs of infected pigs; type: in vivo, pig; details: vancomycin 0.5 mg/kg, day 7
# Method: Tissue samples from the heart valve, left diaphragmatic lobe of the lung, left lateral lobe of the liver, and left kidney were collected and fixed in PBS buffer containing 4% formaldehyde for 24 h. Fixed samples were immersed in different concentrations of xylene and ethanol before embedding in paraffin. The processed samples were sectioned at 8–10 µm using a microtome. The sections were stained for histological analysis with hematoxylin and eosin (H&E) after rehydration.
# [4] = pigs
# Method: (§1) Approximately 3 mL of blood was taken from the carotid artery at 0, 10, 20, 30, and 60 minutes and at 60 minutes intervals thereafter until 600 minutes had passed.
# [5] = 25% human serum in RPMI, 37 °C, LC-MS/MS
# Method: Human serum (catalogue number BP2657100, Fisher Scientific, Millersburg, PA, USA) was suspended in RPMI medium up to 25%, and 0.990 mL was transferred to a 1.5 mL micro centrifuge tube. The serum-containing tube was incubated at 37 °C for 15 min, and 10 mg/mL Epi-1 was added to obtain a final peptide concentration of 100 μg/mL. At constant time intervals 100 μL of the experimental mix was taken out, and serum protein was precipitated in two volumes of 95% ethanol solution. The cloudy precipitate was cooled at 4 °C for 15 min, and then the serum was precipitated and pelleted by centrifugation at 18,000 × g for 2 min. The peptide stability in the supernatant was then analyzed by a liquid chromatography tandem mass spectrometer (LC-MS/MS) (Mission Biotech, Taipei, Taiwan).
# [6] = Acute intravenous toxicity in pigs; type: in vivo, pig
# Method: Acute intravenous (i.v.) toxicity was analyzed as described previously. Acute i.v. toxicity was assessed after administration of 25, 50, 100, and 200 mg/kg body weight of Epi-1 in pigs; 1 to 5 animals per group. After injection, the animals were kept under visual observation up to 1 h, and the rate of mortality and clinical symptoms were recorded every 2 h for a total of 24 h. For blood analysis, 5 mL of heparin-stabilized blood was taken and stored at 4 °C. Serum was separated from the blood sample using a serum separator gel tube (catalogue number 367955, Becton-Dickinson, Franklin Park, NJ, USA), according to the vendor’s instructions. Serum GOT, GPT, UA, BUN, and CRT activity levels were determined using an automated analyzer (FUJI DRI-CHEM 4000i, Fujifilm, Tokyo, Japan) according to the manufacturers’ instructions. Standard controls were analyzed before each determination.
# in vivo = details: pig, iv
# Method: as §1
# [7] = pig, Epi-1 200 mg/kg single i.v., n=1, died in one hour after injection
structure (smiles),measurement,setting,value
CN[C@H](CC(C)C)C(=O)N[C@H]1C(=O)N[C@@H](CC(N)=O)C(=O)N[C@H]2C(=O)N[C@H]3C(=O)N[C@H](C(=O)N[C@H](C(=O)O)c4cc(O)cc(O)c4-c4cc3ccc4O)[C@H](O)c3ccc(c(Cl)c3)Oc3cc2cc(c3O[C@@H]2O[C@H](CO)[C@@H](O)[C@H](O)[C@H]2O[C@H]2C[C@](C)(N)[C@H](O)[C@H](C)O2)Oc2ccc(cc2Cl)[C@H]1O [vancomycin],killing of MRSA,"MRSA [1]; at 24 h, about 1 × 10^6 cells, Figure 1B",95%
same,survival against MRSA infection,"MRSA [2]; MRSA 1 × 10^9 CFU/kg i.v., vancomycin 0.5 mg/kg i.v. 30 min post-infection, 7 days",80%
same,Survival Rate (Day PI),"MRSA [2]; MRSA 10^9 CFU/kg i.v., vancomycin 0.5 mg/kg, n=5",80
same,Heart: infective endocarditis (animals with clinical signs/total examined),MRSA [3],0/5
same,"Kidney: cystic tubules, cortical (animals with clinical signs/total examined)",MRSA [3],0/5
same,Liver: liver abscess (animals with clinical signs/total examined),MRSA [3],1/5
same,"Lung: inflammation, pulmonary edema (animals with clinical signs/total examined)",MRSA [3],2/5
same,course of the serum concentration of vancomycin,"[4]; vancomycin 0.5 mg/kg i.v., up to 360 min, LC-MS-MS, Supplementary Figure S1",very stable
"CC[C@H](C)[C@H](NC(=O)[C@H](CCSC)NC(=O)[C@H](CCCCN)NC(=O)CNC(=O)[C@H](C)NC(=O)[C@H](Cc1c[nH]cn1)NC(=O)[C@H](Cc1ccccc1)NC(=O)[C@H](CC(C)C)NC(=O)CNC(=O)[C@H](CCCCN)NC(=O)[C@@H](NC(=O)[C@@H](NC(=O)[C@H](Cc1c[nH]cn1)NC(=O)[C@H](Cc1ccccc1)NC(=O)[C@@H](NC(=O)[C@H](Cc1ccccc1)NC(=O)CN)[C@@H](C)CC)[C@@H](C)CC)[C@@H](C)CC)C(=O)N[C@@H](Cc1c[nH]cn1)C(=O)NCC(=O)N[C@@H](CC(C)C)C(=O)N[C@H](C(N)=O)C(C)C [Epi-1, epinecidin-1] (H-GFIFHIIKGLFHAGKMIHGLV-NH2)",pathogens killed (time-kill),MRSA [1]; 1,90%
same,pathogens killed (time-kill),MRSA [1]; 2,90%
same,"concentration of free Epi-1 in serum, initial","[5]; 15 min pre-incubation, nominal 100 µg/mL, ethanol precipitation, start, mean ± SEM, three independent experiments",7360 ± 300 ng/mL
same,time up to which the free Epi-1 concentration did not change (after the initial 30 min),[5],up to 7 h
same,time for which Epi-1 was stable in human serum in vitro,[5]; Figure 2C,up to 400 min
same,concentration of free Epi-1 in serum after the initial 30 min,"[5]; nominal 100 µg/mL, ethanol precipitation, 30 min, mean ± SEM, three independent experiments",5940 ± 120 ng/mL
same,BUN,[6]; [7],Died
same,CRE,[6]; [7],Died
same,GOT,[6]; [7],Died
same,GPT,[6]; [7],Died
same,Serum UA,[6]; [7],Died
same,"doses that did not cause abnormal behavior, mortality, or activity","[6]; single i.v. injection, piglets starved 12 h, observed every 2 h up to 24 h",up to 100 mg/kg
same,time post i.v. injection up to which Epi-1 is stable in serum,[4]; i.v.,up to 4 h
same,time post-injection up to which Epi-1 was detected in serum,[4]; i.v.,up to 240 min
same,half-life,in vivo; plasma,~4 h
same,level at 5 h,"in vivo; serum, 0.5 mg/kg",2920 ± 957 ng/mL
same,level at 10 min,"in vivo; serum, 1.5 mg/kg",9061 ± 60 ng/mL
same,level at 5 h,"in vivo; serum, 1.5 mg/kg",3780 ± 219 ng/mL
same,level at 5 h,"in vivo; serum, 2.5 mg/kg",8880 ± 205 ng/mL
